# From publication PMC7449217, “The FDA-Approved Drug Nelfinavir Inhibits Lytic Cell-Free but Not Cell-Associated Nonlytic Transmission of Human Adenovirus” (Antimicrobial Agents and Chemotherapy, 2020)
# Structures can show the parent of a compound that is named as a salt.
# Key:
# uninfected A549 cells = assay: cellular impedance measurement (xCELLigence), nelfinavir toxicity; type: cell-based, human
# Experimental: Impedance-based assays were performed using the xCELLigence system (Roche Applied Science and ACEA Biosciences) as described previously ([152], [153]), according to the manufacturer’s instructions ([177]), in a cell culture environment (37°C, 5% CO2, and 95% humidity) in duplicates. The 16-well E plates have a gold-plated sensor array embedded in their glass bottom by which the electrical impedance across each well bottom is measured. The impedance per well, termed the cell index (CI), is recorded as a dimensionless quantity. The background CI was assessed following the addition of 50 μl supplemented medium to each well and equilibration in the incubation environment. After 30 min of equilibration, 9,000 A549 cells in 50 μl supplemented medium were added per well, and measurement was started.
# For the quantification of nelfinavir toxicity, 50 μl of the supernatant was removed 18 h later and replaced with 2-fold-concentrated nelfinavir or DMSO solvent as the control dilution in supplemented medium (final nelfinavir concentration of 0.4 to 100 μM in 100 μl/well). The control was supplemented medium. Impedance was recorded every 15 min over 5 days. The TC50 indicates the concentration of nelfinavir that caused a 50% impedance reduction compared to the solvent-treated cells. The TC50 was calculated by nonlinear regression of the solvent-normalized CI over the concentration of nelfinavir.
# HAdV-C2-dE3B-GFP [1] = assay: microbe, parasite or virus in culture; type: cell-based, human adenovirus; conditions: for EC50: Human adenovirus sp.
# Experimental: (§1) Per 96-well plate, 15,000 A549 cells, 10,000 HeLa cells, 30,000 HBECs, 30,000 HCE cells, or 30,000 CMT-93 cells were seeded in 100 μl of the respective supplemented medium and allowed to settle for 1 h at room temperature (RT) prior to cell culture incubation at 37°C with 5% CO2 and 95% humidity. The following day, the medium was replaced with 50 μl of the respective virus stock dilution giving rise to 5 to 50 plaques per 96-well plate. Fifty microliters of nelfinavir to obtain a 0.1 to 50 μM final concentration or the DMSO solvent control was also added, both in supplemented medium. For each experiment, a noninfected, treated control was performed. For uphill plaque assays, the medium volume was increased to 150 μl with identical virus and drug concentrations. For wash-in/washout experiments, the virus was incubated on cells in supplemented medium for 1 h at 37°C, cells were washed with PBS, and a 100-μl drug dilution in supplemented medium was added. All experiments were performed in four technical replicates or as indicated. Cells were incubated under standard cell culture conditions. At the indicated times postinfection, the cells were fixed, and the nuclei were stained for 1 h at RT by the addition of 33 μl 16% (wt/vol) paraformaldehyde (PFA) and 4 μg/ml Hoechst 33342 (Sigma-Aldrich, St. Louis, MO, USA) in PBS. Cells were washed three times with PBS and stored in PBS supplemented with 0.02% N3 for infections with viruses harboring a GFP transgene. For wild-type (wt) viruses, cells were quenched in PBS supplemented with 50 mM NH4Cl, permeabilized using 0.2% (vol/vol) Triton X-100 in PBS, and blocked with 0.5% (wt/vol) bovine serum albumin (BSA) in PBS. Cells were incubated with 381.7 ng/ml mouse anti-HAdV hexon protein antibody (Mab8052; Sigma-Aldrich, St. Louis, MO, USA) and subsequently stained using 2 μg/ml goat anti-mouse-Alexa Fluor 594 (catalog number A21203 or A32742; Thermo Fisher Scientific, Waltham, MA, USA). Plates were imaged on either an IXM-XL or an IXM-C automated high-throughput fluorescence microscope (Molecular Devices, San Jose, CA, USA) using a 4× objective in wide-field mode. Hoechst staining was recorded in the 4′,6-diamidino-2-phenylindole (DAPI) channel, the fluorescein isothiocyanate (FITC)/GFP channel was acquired for viral GFP, and the tetramethyl rhodamine isothiocyanate (TRITC)/Texas Red channel was acquired for hexon immunofluorescence staining.
# (§2) The infection phenotype for each well was quantified using Plaque2.0 ([101]). The number of plaques was determined based on the infection signal (viral GFP or hexon immunofluorescence staining). Nuclei stained with Hoechst were segmented by using CellProfiler ([178]). Infected nuclei were classified based on the median infection signal per nucleus in CellProfiler. Data were plotted, and the EC50 (infected and treated cells), the TC50 (noninfected, treated cells), as well as the corresponding standard errors (SE) were determined using curve fitting in GraphPad (version 8.1.2; GraphPad Software, Inc.) using three-parameter inhibitor concentration-versus-response nonlinear regression. The mean TI50 was calculated as the […] ratio of the means. The TI50 SE was calculated by error propagation.
# HAdV-A31 = assay: fluorescence-based plaque-forming assay, HCE cells; type: cell-based, human adenovirus; conditions: HAdV-A31 in HCE
# Experimental: as §1, with “Cells were incubated with 381.7 ng/ml mouse anti-HAdV hexon protein antibody (Mab8052; Sigma-Aldrich, St. Louis, MO, USA) and subsequently stained using 2 μg/ml goat anti-mouse-Alexa Fluor 594 (catalog number A21203 or A32742; Thermo Fisher Scientific, Waltham, MA, USA).” left out
# as §2, with “Nuclei stained with Hoechst were segmented by using CellProfiler ([178]). Infected nuclei were classified based on the median infection signal per nucleus in CellProfiler.” left out
# HAdV-C2-dE3B-GFP [2] = assay: fluorescence-based plaque-forming assay, HCE cells; type: cell-based, human adenovirus
# Experimental: as §1, with “Cells were incubated with 381.7 ng/ml mouse anti-HAdV hexon protein antibody (Mab8052; Sigma-Aldrich, St. Louis, MO, USA) and subsequently stained using 2 μg/ml goat anti-mouse-Alexa Fluor 594 (catalog number A21203 or A32742; Thermo Fisher Scientific, Waltham, MA, USA).” left out
# as §2, with “Nuclei stained with Hoechst were segmented by using CellProfiler ([178]). Infected nuclei were classified based on the median infection signal per nucleus in CellProfiler.” left out
# HAdV-B3-pIX-FS2A-GFP = assay: fluorescence-based plaque-forming assay, HBEC; type: cell-based, human adenovirus
# Experimental: as §1, §2
# HAdV-B35-pIX-FS2A-GFP = assay: fluorescence-based plaque-forming assay, HBEC; type: cell-based, human adenovirus
# Experimental: as §1, §2
# HAdV-C2-dE3B-GFP-dADP = assay: fluorescence-based plaque-forming assay, HBEC; type: cell-based, human adenovirus; conditions: for TI50 (TC50/IC50): HAdV-C2-dE3B-GFP-dADP in HBEC, 4 dpi, GFP
# Experimental: as §1, §2
# HAdV-C2-dE3B-GFP [3] = assay: fluorescence-based plaque-forming assay, HBEC; type: cell-based, human adenovirus; conditions: for TI50 (TC50/IC50): HAdV-C2-dE3B-GFP in HBEC, 4 dpi, GFP
# Experimental: as §1, §2
compound,measurement,setting,value
"Cc1c(O)cccc1C(=O)N[C@@H](CSc1ccccc1)[C@H](O)CN1C[C@H]2CCCC[C@H]2C[C@H]1C(=O)NC(C)(C)C [Nelfinavir, Nelfinavir mesylate]",toxicity in cell index (CI) profiles,"uninfected A549 cells; uninfected A549, up to 6.25 µM, more than 4 days of incubation",little signs of toxicity
same,median toxicity TC50 (cell impedance),"uninfected A549 cells; uninfected A549 cells, incubation up to 115 h, xCELLigence",25.7 µM
same,TI50 (TC50/IC50),"HAdV-C2-dE3B-GFP [1]; HAdV-C2-dE3B-GFP in A549, 3 dpi, GFP",66.80
same,TI50 (TC50/IC50),"HAdV-C2-dE3B-GFP [1]; HAdV-C2-dE3B-GFP in A549, 3 dpi, GFP, listed as nelfinavir",66.8
same,TI50 (TC50/IC50),"HAdV-C2-dE3B-GFP [1]; HAdV-C2-dE3B-GFP in A549, 4 dpi, GFP",29.43
same,TI50 (TC50/IC50),"HAdV-C2-dE3B-GFP [1]; HAdV-C2-dE3B-GFP in A549, 4 dpi, Hexon",29.87
same,EC50,"HAdV-C2-dE3B-GFP [1]; A549, HAdV-C2-dE3B-GFP in A549, fixation 3 dpi (72 hpi), read-out GFP, plaque numbers",0.22 µM
same,EC50,"HAdV-C2-dE3B-GFP [1]; A549, HAdV-C2-dE3B-GFP in A549, fixation 4 dpi, read-out GFP, plaque numbers",0.44 µM
same,EC50,"HAdV-C2-dE3B-GFP [1]; A549, HAdV-C2-dE3B-GFP in A549, fixation 4 dpi, read-out Hexon, plaque numbers",0.43 µM
same,EC50,"HAdV-C2-dE3B-GFP [1]; A549, read-out: EC50 of fluorescent-plaque formation, HAdV-C2-dE3B-GFP, A549 cells, 82 hpi, plaque numbers",0.37 µM
same,median therapeutic index (TI50),"HAdV-C2-dE3B-GFP [1]; ratio TC50 (nuclei) / EC50 (plaques), A549 cells, 82 hpi",27.1
same,TI50 (TC50/IC50),"HAdV-A31; 8 dpi, Hexon",1.08
same,EC50,"HAdV-A31; Human adenovirus sp., fixation 8 dpi, read-out Hexon, plaque numbers",18.1 µM
same,TI50 (TC50/IC50),"HAdV-C2-dE3B-GFP [2]; HAdV-C2-dE3B-GFP in HCE, 5 dpi, GFP",54.04
same,EC50,"HAdV-C2-dE3B-GFP [2]; Human adenovirus sp., HCE",0.55 µM
same,TI50 (TC50/IC50),"HAdV-B3-pIX-FS2A-GFP; HAdV-B3-pIX-FS2A-GFP in HBEC, 8 dpi, GFP",1.99
same,EC50,HAdV-B3-pIX-FS2A-GFP; Human adenovirus sp.,6.41 µM
same,TI50 (TC50/IC50),"HAdV-B35-pIX-FS2A-GFP; HAdV-B35-pIX-FS2A-GFP in HBEC, 6 dpi, GFP",1.91
same,EC50,HAdV-B35-pIX-FS2A-GFP; Human adenovirus sp.,6.99 µM
same,TI50 (TC50/IC50),HAdV-C2-dE3B-GFP-dADP,4.56
same,TI50 (TC50/IC50),HAdV-C2-dE3B-GFP-dADP; listed as nelfinavir,4.6
same,EC50,HAdV-C2-dE3B-GFP-dADP; Human adenovirus sp.,2.72 µM
same,TI50 (TC50/IC50),HAdV-C2-dE3B-GFP [3],55.18
same,TI50 (TC50/IC50),HAdV-C2-dE3B-GFP [3]; listed as nelfinavir,55.2
same,EC50,HAdV-C2-dE3B-GFP [3]; Human adenovirus sp.,0.53 µM
